Measurements taken from the NIST ThermoML archive (doi:10.1016/j.tca.2015.06.017).

Assay: xn = mol fraction of the nth substance listed
Details: Liquid, Vibrating tube method

CCCCCl [1-chlorobutane] + CCCCCCC
mass density [kg/m3]
Details	303.15 K	313.15 K	323.15 K
100 kPa, x2 = 0.0508	860.95	849.81	838.56
100 kPa, x2 = 0.0994	847.86	836.88	825.81
100 kPa, x2 = 0.2013	822	811.33	800.61
100 kPa, x2 = 0.3015	798.55	788.17	777.72
100 kPa, x2 = 0.4008	777.02	766.92	756.76
100 kPa, x2 = 0.5026	756.58	746.79	736.89
100 kPa, x2 = 0.6012	738.17	728.67	719.03
100 kPa, x2 = 0.7003	720.97	711.73	702.32
100 kPa, x2 = 0.7995	704.97	695.88	686.71
100 kPa, x2 = 0.9011	689.64	680.8	671.83
100 kPa, x2 = 0.9494	682.71	673.98	665.13
2000 kPa, x2 = 0.0508	863.1	852.16	840.94
2000 kPa, x2 = 0.0994	849.99	839.22	828.16
2000 kPa, x2 = 0.2013	824.16	813.71	802.98
2000 kPa, x2 = 0.3015	800.7	790.49	780.1
2000 kPa, x2 = 0.4008	779.13	769.27	759.09
2000 kPa, x2 = 0.5026	758.72	749.1	739.17
2000 kPa, x2 = 0.6012	740.28	730.92	721.27
2000 kPa, x2 = 0.7003	723.08	713.94	704.55
2000 kPa, x2 = 0.7995	707.04	698.12	688.99
2000 kPa, x2 = 0.9011	691.71	683.02	674.07
2000 kPa, x2 = 0.9494	684.78	676.19	667.35
5000 kPa, x2 = 0.0508	866.34	855.66	844.77
5000 kPa, x2 = 0.0994	853.23	842.7	831.99
5000 kPa, x2 = 0.2013	827.36	817.15	806.76
5000 kPa, x2 = 0.3015	803.89	793.89	783.86
5000 kPa, x2 = 0.4008	782.29	772.63	762.86
5000 kPa, x2 = 0.5026	761.81	752.4	742.92
5000 kPa, x2 = 0.6012	743.41	734.17	724.95
5000 kPa, x2 = 0.7003	726.22	717.17	708.22
5000 kPa, x2 = 0.7995	710.1	701.32	692.58
5000 kPa, x2 = 0.9011	694.74	686.16	677.65
5000 kPa, x2 = 0.9494	687.8	679.3	670.89
7000 kPa, x2 = 0.0508	868.42	857.83	847.24
7000 kPa, x2 = 0.0994	855.3	844.87	834.44
7000 kPa, x2 = 0.2013	829.43	819.33	809.21
7000 kPa, x2 = 0.3015	805.92	796.12	786.24
7000 kPa, x2 = 0.4008	784.34	774.82	765.22
7000 kPa, x2 = 0.5026	763.83	754.59	745.31
7000 kPa, x2 = 0.6012	745.42	736.35	727.32
7000 kPa, x2 = 0.7003	728.16	719.35	710.53
7000 kPa, x2 = 0.7995	712.06	703.48	694.9
7000 kPa, x2 = 0.9011	696.65	688.32	679.93
7000 kPa, x2 = 0.9494	689.71	681.45	673.17
10000 kPa, x2 = 0.0508	871.51	861.16	850.72
10000 kPa, x2 = 0.0994	858.41	848.2	837.9
10000 kPa, x2 = 0.2013	832.51	822.59	812.61
10000 kPa, x2 = 0.3015	808.97	799.33	789.63
10000 kPa, x2 = 0.4008	787.38	777.95	768.57
10000 kPa, x2 = 0.5026	766.86	757.71	748.59
10000 kPa, x2 = 0.6012	748.41	739.49	730.62
10000 kPa, x2 = 0.7003	731.09	722.43	713.78
10000 kPa, x2 = 0.7995	714.97	706.51	698.05
10000 kPa, x2 = 0.9011	699.57	691.27	683.06
10000 kPa, x2 = 0.9494	692.59	684.4	676.28
20000 kPa, x2 = 0.0508	881.1	871.22	861.47
20000 kPa, x2 = 0.0994	867.95	858.21	848.64
20000 kPa, x2 = 0.2013	841.94	832.53	823.24
20000 kPa, x2 = 0.3015	818.31	809.13	800.16
20000 kPa, x2 = 0.4008	796.57	787.71	779.03
20000 kPa, x2 = 0.5026	775.93	767.37	758.92
20000 kPa, x2 = 0.6012	757.4	749.02	740.82
20000 kPa, x2 = 0.7003	740.01	731.86	723.85
20000 kPa, x2 = 0.7995	723.78	715.81	708.08
20000 kPa, x2 = 0.9011	708.24	700.5	692.95
20000 kPa, x2 = 0.9494	701.2	693.56	686.11
30000 kPa, x2 = 0.0508	889.77	880.41	871.14
30000 kPa, x2 = 0.0994	876.56	867.36	858.24
30000 kPa, x2 = 0.2013	850.48	841.53	832.76
30000 kPa, x2 = 0.3015	826.73	818.07	809.58
30000 kPa, x2 = 0.4008	804.94	796.54	788.23
30000 kPa, x2 = 0.5026	784.21	776	767.99
30000 kPa, x2 = 0.6012	765.55	757.6	749.78
30000 kPa, x2 = 0.7003	748.07	740.3	732.75
30000 kPa, x2 = 0.7995	731.77	724.2	716.78
30000 kPa, x2 = 0.9011	716.14	708.75	701.56
30000 kPa, x2 = 0.9494	709.05	701.75	694.65
40000 kPa, x2 = 0.0508	897.85	888.86	880.1
40000 kPa, x2 = 0.0994	884.61	875.75	867.14
40000 kPa, x2 = 0.2013	858.37	849.87	841.52
40000 kPa, x2 = 0.3015	834.56	826.26	818.18
40000 kPa, x2 = 0.4008	812.66	804.63	796.79
40000 kPa, x2 = 0.5026	791.81	783.99	776.38
40000 kPa, x2 = 0.6012	773.04	765.46	758.03
40000 kPa, x2 = 0.7003	755.46	748.11	740.88
40000 kPa, x2 = 0.7995	739	731.87	724.82
40000 kPa, x2 = 0.9011	723.24	716.29	709.43
40000 kPa, x2 = 0.9494	716.11	709.25	702.46
50000 kPa, x2 = 0.0508	905.34	896.61	888.16
50000 kPa, x2 = 0.0994	892.06	883.49	875.18
50000 kPa, x2 = 0.2013	865.75	857.51	849.47
50000 kPa, x2 = 0.3015	841.81	833.86	826.06
50000 kPa, x2 = 0.4008	819.81	812.1	804.52
50000 kPa, x2 = 0.5026	798.87	791.37	784.01
50000 kPa, x2 = 0.6012	780.02	772.75	765.61
50000 kPa, x2 = 0.7003	762.36	755.31	748.29
50000 kPa, x2 = 0.7995	745.84	738.98	732.14
50000 kPa, x2 = 0.9011	729.99	723.31	716.65
50000 kPa, x2 = 0.9494	722.81	716.21	709.64
60000 kPa, x2 = 0.0508	912.31	903.88	895.85
60000 kPa, x2 = 0.0994	899.01	890.72	882.82
60000 kPa, x2 = 0.2013	872.64	864.67	856.99
60000 kPa, x2 = 0.3015	848.6	840.92	833.5
60000 kPa, x2 = 0.4008	826.55	819.09	811.83
60000 kPa, x2 = 0.5026	805.54	798.31	791.24
60000 kPa, x2 = 0.6012	786.57	779.58	772.72
60000 kPa, x2 = 0.7003	768.84	762	755.34
60000 kPa, x2 = 0.7995	752.23	745.59	739.04
60000 kPa, x2 = 0.9011	736.26	729.82	723.43
60000 kPa, x2 = 0.9494	729.04	722.67	716.36
65000 kPa, x2 = 0.0508	915.61	907.45	899.38
65000 kPa, x2 = 0.0994	902.28	894.26	886.34
65000 kPa, x2 = 0.2013	875.88	868.13	860.51
65000 kPa, x2 = 0.3015	851.83	844.29	836.96
65000 kPa, x2 = 0.4008	829.71	822.37	815.25
65000 kPa, x2 = 0.5026	808.61	801.56	794.63
65000 kPa, x2 = 0.6012	789.63	782.77	776.07
65000 kPa, x2 = 0.7003	771.84	765.13	758.61
65000 kPa, x2 = 0.7995	755.19	748.66	742.31
65000 kPa, x2 = 0.9011	739.21	732.82	726.65
65000 kPa, x2 = 0.9494	731.94	725.63	719.56
